Where “and” joins values, the source holds several entries; their conditions need not be identical. Equal entries are not always repeated.
Target: P2Y12 receptor (Homo sapiens, UniProt Q9H244)
Assay: [33P]-2MeS-ADP binding to recombinant human P2Y12 membranes (Assay 3)
Set-up: expressed in transfected cells; host or cells: HEK cells
Conditions: for IC50 / Ki: HEK cell membranes expressing human P2Y12, competition with 33P 2MeS-ADP
Description: 3. Human P2Y12 Recombinant Cell Membrane Binding Assay with ^33P 2MeS-ADP.
The ability of a test compound to bind to the P2Y12 receptor was evaluated in a recombinant cell membrane binding assay. In this competitive binding assay, the test compound competed against a radiolabelled agonist for binding to the P2Y12 receptor, expressed on the cell membrane. Inhibition of binding of the labeled material was measured and correlated to the amount and potency of the test compound. Data from this assay are presented in Table F. This binding assay is a modification of the procedure in Takasaki, J. et. al, Mol. Pharmacol., 2001, Vol. 60, pg. 432.
HEK cells were transfected with the pDONR201P2Y12 vector and cultured in MEM with GlutaMAX I, Earle's salts, 25 mM HEPES (Gibco # 42360-032) containing 10% dialyzed FBS (Gibco # 26400-044), 100 μM nonessential amino acids (Gibco # 11140-050), 1 mM sodium pyruvate (Gibco # 11360-070), 0.05% geneticin (Gibco #10131-027), 3 μg/mL blasticidin (Fluka brand from Sigma # 15205), and 0.5 μg/mL puromycin (Sigma # P-8833).
Confluent cells were washed once with cold DPBS (Gibco # 14190-136). Fresh DPBS was added and the cells were scraped and centrifuged at 500×g for 5 minutes at 4° C. The cell pellets were resuspended in TEE buffer (25 mM Tris, 5 mM EDTA, 5 mM EGTA) containing 1 protease inhibitor cocktail tablet (Roche # 1 873 580) per 50 mL (called TEE+Complete) and can be flash frozen at this point.
In one embodiment, frozen cell pellets were used to prepare the membranes. In that embodiment, the frozen cell pellets were thawed on ice. In another embodiment, cell pellets may be used without flash freezing before moving on to the next step.
Cell pellets were resuspended in TEE buffer+Complete and homogenized in a glass dounce for 12 strokes. The cell suspension was centrifuged at 500×g for 5 minutes at 4° C. The supernatant was saved and centrifuged at 20,000×g for 20 minutes at 4° C. This supernatant was discarded and the cell pellet resuspended in TEE buffer+Complete and homogenized in a glass dounce for 12 strokes. This suspension was centrifuged at 20,000×g for 20 minutes at 4° C. and the supernatant discarded. The pellet was resuspended in assay buffer (50 mM Tris, 100 mM NaCl, 1 mM EDTA) containing one protease inhibitor cocktail tablet per 50 mL, and can be flash frozen as 1 mL aliquots at this point.
Dry compounds were diluted as 10 mM DMSO stocks and tested in a seven-point, three-fold dilution series run in triplicate beginning at 10 μM, final concentration. A 1 mM DMSO intermediate stock was made in a dilution plate and from this the seven dilutions were made to 5× the final concentration in assay buffer containing 0.02% BSA.
The plates were incubated at room temperature for 1 hour. The reaction was stopped using a cell harvester to transfer the reaction mixture onto GF/B UniFilter plates (Perkin Elmer # 6005177), and washed three times with wash buffer (50 mM Tris), filtering between each wash. The filter plates were dried for approximately 20 minutes in an oven at 50° C. Back seals were adhered to the filter plates and 25 uL of Microscint 20 scintillation fluid (Perkin Elmer # 6013621) were added. The filter plates were sealed, shaken for 30 minutes, and counted on a Top Count. Data were analyzed using a four-parameter curve fit with a fixed minimum and maximum experimentally defined as the average positive and negative controls on each plate, and with a hill slope equal to one.
The table below presents the IC50, Ki, and percent inhibition values for compounds tested in either washed human platelets membrane binding assay (assay #1 above) or recombinant cell membrane binding assay (Assay #3, above). Example number refers to the compound prepared as described in the example noted in the section Working Examples, above. The highest concentration of candidate compound tested is listed for each experimental run presented. […]

[1] = at highest concentration tested, 10 μM

Chain of P2Y12 receptor (Q9H244 whole entry): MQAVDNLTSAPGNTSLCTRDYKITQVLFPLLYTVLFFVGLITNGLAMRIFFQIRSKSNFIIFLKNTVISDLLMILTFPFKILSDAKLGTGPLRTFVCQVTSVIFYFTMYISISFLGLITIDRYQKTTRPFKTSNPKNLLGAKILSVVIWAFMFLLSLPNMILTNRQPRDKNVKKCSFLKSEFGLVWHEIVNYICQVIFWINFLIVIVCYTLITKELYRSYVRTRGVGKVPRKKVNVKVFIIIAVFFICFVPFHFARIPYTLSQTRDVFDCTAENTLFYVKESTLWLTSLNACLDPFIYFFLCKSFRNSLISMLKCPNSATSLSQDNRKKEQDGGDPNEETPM

Row | SMILES | IC50 | Ki | inhibition at 10 µM [1] | % Inhibition [1]
1 | CCOc1ccc(C(=O)N2CCN(c3nc(SCC(=O)OC)nc4sc(CC)cc34)CC2)cc1 [Example 57, Methyl ({4-[4-(4-ethoxybenzoyl)piperazin-1-yl]-6-ethylthieno[2,3-d]pyrimidin-2-yl}thio)acetate] | 1050 nM | 524 nM | 80.8% | –
2 | CCc1cc2c(N3CCN(C(=O)CCOC)CC3)nc(SCC(=O)OC)nc2s1 [Example 58, Methyl ({6-ethyl-4-[4-(3-methoxypropanoyl)piperazin-1-yl]thieno[2,3-d]pyrimidin-2-yl}thio)acetate] | 5250 nM | 2620 nM | 53.6% | –
3 | CCc1cc2c(N3CCN(C(=O)c4ccc(OC)cc4)CC3)nc(SCC(=O)OC)nc2s1 [Example 59, Methyl ({6-ethyl-4-[4-(4-methoxybenzoyl)piperazin-1-yl]thieno[2,3-d]pyrimidin-2-yl}thio)acetate] | 2970 nM | 1480 nM | 67.1% | –
4 | CCc1cc2c(N3CCN(C(=O)c4ccc5cc[nH]c5c4)CC3)nc(SCC(=O)OC)nc2s1 [Example 63, Methyl ({6-ethyl-4-[4-(1H-indol-6-ylcarbonyl)piperazin-1-yl]thieno[2,3-d]pyrimidin-2-yl}thio)acetate] | 1880 nM | 1130 nM | 68.1% | –
5 | CCc1cc2c(N3CCN(C(=O)c4cccc(C#N)c4)CC3)nc(SCC(=O)OC)nc2s1 [Example 64, Methyl ({4-[4-(3-cyanobenzoyl)piperazin-1-yl]-6-ethylthieno[2,3-d]pyrimidin-2-yl}thio)acetate] | 157 nM and 417 nM and 330 nM | 94 nM and 252 nM and 212 nM | 91.3% | 81.22% and 90.29%
6 | CCc1cc2c(N3CCN(C(=O)c4ccc5ccoc5c4)CC3)nc(SCC(=O)OC)nc2s1 [Example 65, Methyl ({4-[4-(1-benzofuran-6-ylcarbonyl)piperazin-1-yl]-6-ethylthieno[2,3-d]pyrimidin-2-yl}thio)acetate] | 620 nM | 370 nM | 81% | –

Continued, values first:

Row | IC50 | Ki | inhibition at 10 µM [1] | % Inhibition [1] | SMILES
7 | 3040 nM | 1520 nM | 64.1% | – | CCc1cc2c(N3CCN(C(=O)c4ccccc4)CC3)nc(SCC(=O)OC)nc2s1 [Example 56, Methyl {[4-(4-benzoylpiperazin-1-yl)-6-ethylthieno[2,3-d]pyrimidin-2-yl]thio}acetate]
8 | 4870 nM | 3160 nM | 60.8% | – | CCc1cc2c(N3CCN(C(=O)c4cccc(C(F)(F)F)c4)CC3)nc(SCC(=O)OC)nc2s1 [Example 60, Methyl [(6-ethyl-4-{4-[3-(trifluoromethyl)benzoyl]piperazin-1-yl}thieno[2,3-d]pyrimidin-2-yl)thio]acetate]
9 | 1910 nM | 1240 nM | 78.5% | – | CCc1cc2c(N3CCN(C(=O)c4cccc(C)c4)CC3)nc(SCC(=O)OC)nc2s1 [Example 61, Methyl ({6-ethyl-4-[4-(3-methylbenzoyl)piperazin-1-yl]thieno[2,3-d]pyrimidin-2-yl}thio)acetate]
10 | 5860 nM | 3530 nM | 50.9% | – | CCc1cc2c(N3CCN(C(=O)c4ccc5[nH]ccc5c4)CC3)nc(SCC(=O)OC)nc2s1 [Example 62, Methyl ({6-ethyl-4-[4-(1H-indol-5-ylcarbonyl)piperazin-1-yl]thieno[2,3-d]pyrimidin-2-yl}thio)acetate]
11 | 450 nM | 270 nM | 74.6% | – | CCc1cc2c(N3CCN(C(=O)c4ccc(-c5csnn5)cc4)CC3)nc(SCC(=O)OC)nc2s1 [Example 66, Methyl [(6-ethyl-4-{4-[4-(1,2,3-thiadiazol-4-yl)benzoyl]piperazin-1-yl}thieno[2,3-d]pyrimidin-2-yl)thio]acetate]
12 | 1230 nM | 740 nM | 79.7% | – | CCc1cc2c(N3CCN(C(=O)c4ccc5c(c4)OCC5)CC3)nc(SCC(=O)OC)nc2s1 [Example 67, Methyl ({4-[4-(2,3-dihydro-1-benzofuran-6-ylcarbonyl)piperazin-1-yl]-6-ethylthieno[2,3-d]pyrimidin-2-yl}thio)acetate]
